The numbers were not newly measured in patent US20090093865A1, “METHOD AND SYSTEM FOR CONTROLLING THE SPREAD OF MICROORGANISMS AMONG SUBJECTS IN A GROUP” (priority 2006, published 2009), which cites them from elsewhere.

For the series, the system named is methicillin-resistant Staphylococcus aureus. The conditions noted are these: randomized controlled trial of mupirocin versus placebo (Harbarth et al. 1999).

Turning to `C/C(=C\C(=O)OCCCCCCCCC(=O)O)C[C@@H]1OC[C@H](C[C@@H]2O[C@H]2[C@@H](C)[C@H](C)O)[C@@H](O)[C@H]1O` [mupirocin], the “carriers in whom methicillin-resistant S. aureus was successfully eradicated” value is 44%.
